Assay results: patent US12605370B2, “Agents and compositions for the treatment of glioblastoma” (University of Cincinnati, priority 2020, dated 2026)

Assays:
Assay type in all cases: cell-based
[1] = system: shNT LN229 cells; experiment: Cell viability (CytoTox Glo) in non-targeting shNT LN229 glioblastoma cells; conditions: serum-free, 72 hours
Method: (§1) LN229 glioblastoma cells were transduced with either short hairpin RNA (shRNA) lentiviral particles coding for non-targeting shRNA (shNT) or shRNA that targets PTEN mRNA (shPTEN) for inhibition and degradation. These cells were then treated with either vehicle control, 10 μM LY2584702, 0.1-20 μM merestinib, or a combination of 10 μM LY2584702 and 0.1-20 μM merestinib. Cell viability was measured using CytoTox Glo after culturing with inhibitors in serum-free conditions for 72 hours.

[2] = system: PTEN-expressing U-PTEN U87MG cells; experiment: Cell viability (CytoTox Glo) in PTEN-expressing U-PTEN U87MG glioblastoma cells; conditions: U-PTEN U87MG (doxycycline-induced PTEN), serum-free, 72 hours
Method: (§2) FIG. 2 depicts a dose curve analysis showing the efficacy of the combination of LY2584702 with merestinib in PTEN-deficient U87MG glioblastoma cells. Viability was measured using CytoTox Glo after culturing with inhibitors in serum-free conditions for 72 hours. Doxycycline addition induced PTEN and protected cells from the cytotoxic effect of combination drug treatment.
(§3) U87MG glioblastoma cells were treated with doxycycline to induce PTEN expression (U-PTEN), while a separate set of U87 glioblastoma cells were treated with a similar amount of vector (U-vector). Thus, the U-vector cells were PTEN-deficient. These cells were then treated with either vehicle control, 10 μM LY2584702, 0.1-20 μM merestinib, or a combination of 10 μM LY2584702 and 0.1-20 μM merestinib. Cell viability was measured using CytoTox Glo after culturing with inhibitors in serum-free conditions for 72 hours.

[3] = system: shPTEN LN229 glioblastoma cells; experiment: Cell viability (CytoTox Glo) in PTEN-deficient shPTEN LN229 glioblastoma cells; conditions: serum-free, 72 hours
Method: FIG. 1 depicts a dose curve analysis showing the efficacy of the combination of LY2584702 with merestinib in shPTEN LN229 glioblastoma cells. Viability was measured using CytoTox Glo after culturing with inhibitors in serum-free conditions for 72 hours.
as §1

[4] = system: PTEN-deficient U-vector U87MG glioblastoma cells; experiment: Cell viability (CytoTox Glo) in PTEN-deficient U-vector U87MG glioblastoma cells; conditions: serum-free, 72 hours
Method: as §2, §3

[5] = system: PTEN-expressing glioblastoma cells; experiment: Cell viability in PTEN-expressing glioblastoma cells (cabozantinib comparison)
Method: (§4) Glioblastoma cells were treated to produce two populations: PTEN-expressing and PTEN-deficient. These cells were then treated with either vehicle control, LY2584702, variable concentrations of cabozantinib, or a combination of LY2584702 and variable concentrations of cabozantinib. Cabozantinib is a small molecule inhibitor of RTKs, including TAM receptors. Cell viability was measured after culturing with the inhibitors.

[6] = system: PTEN-deficient glioblastoma cells; experiment: Cell viability in PTEN-deficient glioblastoma cells (cabozantinib comparison)
Method: as §4

[7] = variable concentrations of cabozantinib alone

Measured: cytotoxicity (cell viability)

Cn1cc(-c2ccc(F)c(C(F)(F)F)c2)nc1C1CCN(c2ncnc3[nH]ncc23)CC1 [LY2584702]
not cytotoxic: [1]; 10 μM LY2584702 alone | [2]; 10 μM LY2584702 alone | [3]; 10 μM LY2584702 alone | [4]; 10 μM LY2584702 alone | [5]; LY2584702 alone | [6]; LY2584702 alone

COc1cc2nccc(Oc3ccc(NC(=O)C4(C(=O)Nc5ccc(F)cc5)CC4)cc3)c2cc1OC [cabozantinib]
not cytotoxic: [5]; [7] | [6]; [7]

Cc1ccc(C(=O)Nc2ccc(Oc3cc4cnn(C)c4cc3-c3cn[nH]c3)c(F)c2)c(=O)n1-c1ccc(F)cc1 [merestinib]
not cytotoxic: [1]; 0.1-20 μM merestinib alone | [2]; 0.1-20 μM merestinib alone | [3]; 0.1-20 μM merestinib alone | [4]; 0.1-20 μM merestinib alone
